Consider 2 compounds from US20100004283A1, “4-[(3-FLUOROPHENOXY)PHENYLMETHYL]PIPERIDINE METHANESULFONATE: USES, PROCESS OF SYNTHESIS AND PHARMACEUTICAL COMPOSITIONS” (priority 2006, published 2010).

SMILES strings stand for the structures.

Data set [1] concerns immobility in the tail suspension test. The settings on record: mice, orally administered, acute; cited from earlier work.
The next data set concerns 5-HTP-induced syndrome. The settings on record: mice, orally administered, acute; cited from earlier work.
The nature of data set [2]: Studies of stability under forced conditions. The format is physicochemical. The protocol: Additionally, the compound of formula I has shown excellent stability properties. The compound of formula I has remained stable for at least 6 months in studies of stability under forced conditions at 50 and 60° C., as well as at 40° C. and 75% humidity. This represents more than 2 years of stability under normal conditions.

Consider `Fc1cccc(O[C@H](c2ccccc2)C2CCNCC2)c1` [(S)-4-[(3-fluorophenoxy)phenylmethyl]piperidine], for which the “MED, reduction of the immobility in the tail suspension test” value in data set [1] is reported as 10 mg/kg. Besides, the “minimal effective dose (MED), potentiation of the 5-HTP-induced syndrome” value in the data set on 5-HTP-induced syndrome is listed as 10 mg/kg.
Take `CS(=O)(=O)O.Fc1cccc(OC(c2ccccc2)C2CCNCC2)c1` (stereo not drawn) [compound of formula I, 4-[(3-fluorophenoxy)phenylmethyl]piperidine methanesulfonic acid salt]: the time remained stable entry is “at least 6 months” in data set [2] (40° C. and 75% humidity); “at least 6 months” in data set [2] (forced conditions at 50° C.); “at least 6 months” in data set [2] (forced conditions at 60° C.). Further, in data set [2] (represented by the forced-condition results), the “stability under normal conditions” value is “more than 2 years”.
